Reference: patent publication EP4603105A1, “PHARMACEUTICAL COMPOSITION CONTAINING CYCLIC COMPOUND HAVING SELECTIVE KRAS INHIBITORY EFFECT AGAINST HRAS AND NRAS” (CHUGAI SEIYAKU KABUSHIKI KAISHA, priority 2022, dated 2024)
Like-named read-outs stand apart in the source and are kept apart here. *1 amine or outer side, *2 acyl side, *3 side chain or, on linkers, in order; H or OH if unused. Where a SMILES comes first, the peptide text is derived from it. Bridges are numbered along the chain shown (N, C = ends). [ ]: non-standard residue; d: D form. The star is where a group is joined. hPhe(3-Cl-4-CF3) = N[C@@H](CCc1ccc(C(F)(F)F)c(Cl)c1)C(=O)O; X29 = C#CCN([C@@H](Cc1ccc(C(F)(F)F)cc1)C(=O)[*:2])[*:1]; NPrPhe(4-CF3) = CCCN[C@@H](Cc1ccc(C(F)(F)F)cc1)C(=O)O; NEtPhe(4-Me) = CCN[C@@H](Cc1ccc(C)cc1)C(=O)O; NMeGly(cPent) = CN[C@H](C(=O)O)C1CCCC1; Pro(4,4-F2) = O=C(O)[C@@H]1CC(F)(F)CN1; NMeD = CN[C@@H](CC(=O)O)C(=O)O; NMeL = CN[C@@H](CC(C)C)C(=O)O; Morpholide = C1CN(*)CCO1; NMeA = CN[C@@H](C)C(=O)O; NMeAib = CNC(C)(C)C(=O)O; Nle = CCCC[C@H](N)C(=O)O; Piperidide = C1CCN(*)CC1; Ac5c = NC1(C(=O)O)CCCC1; Aze = O=C(O)[C@@H]1CCN1; Sar = CNCC(=O)O

Columns and labels:
HRAS wild-type protein = HRAS wild-type protein (Homo sapiens, UniProt P01112); assay: Binding to HRAS by surface plasmon resonance (SPR), KD and KD ratio to KRAS
Chain of HRAS wild-type protein (P01112 whole entry): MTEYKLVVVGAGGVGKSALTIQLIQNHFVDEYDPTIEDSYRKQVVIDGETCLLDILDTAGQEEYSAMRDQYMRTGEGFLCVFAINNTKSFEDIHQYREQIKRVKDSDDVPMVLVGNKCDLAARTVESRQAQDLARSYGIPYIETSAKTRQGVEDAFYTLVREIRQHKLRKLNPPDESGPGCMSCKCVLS
In short: (§1)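 Captured GDP-RAS (~100–300 RU) was exposed to increasing compound concentrations, 75 s per step, in running buffer with 10 µM GDP, 10 mM MgCl2 and 4% DMSO at pH 7.4.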

[1] = target: GDP-bound NRAS wild-type protein (Homo sapiens, UniProt P01111); assay: Binding to NRAS by surface plasmon resonance (SPR), KD and KD ratio to KRAS
Chain of GDP-bound NRAS wild-type protein (P01111 whole entry): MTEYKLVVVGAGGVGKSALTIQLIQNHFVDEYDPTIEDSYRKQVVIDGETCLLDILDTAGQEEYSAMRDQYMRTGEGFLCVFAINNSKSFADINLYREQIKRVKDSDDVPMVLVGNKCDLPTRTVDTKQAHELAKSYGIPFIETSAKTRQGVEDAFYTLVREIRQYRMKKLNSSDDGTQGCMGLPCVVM
In short: as §1

[2] = tested on: human lung cancer strain NCI-H441; format: cell-based
In short: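 Step one: dispense the test compound in serial DMSO dilutions. Step three: add the reagent and measure […].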

[3] = ratio of the KD value with respect to HRAS wild-type protein to the KD value with respect to KRAS
[4] = ratio of the KD value with respect to GDP-bound NRAS wild-type protein to the KD value with respect to KRAS
[5] = ratio of KD for HRAS wild-type protein to KD for KRAS
[6] = ratio of KD for GDP-bound NRAS wild-type protein to KD for KRAS

Structure (SMILES) | IC50 [2] | HRAS /KRAS (HRAS wild-type protein; [3]) | NRAS /KRAS [1, 4] | also measured
C#CC[C@H]1C(=O)N[C@@H]([C@@H](C)CC)C(=O)N(C)CC(=O)N(C)[C@H]2CCCCCN(C2=O)[C@@H](Cc2ccc(C(F)(F)F)cc2)C(=O)N(C)CC(=O)N[C@@H](CCc2cc(F)c(C(F)(F)F)c(F)c2)C(=O)N2C[C@H](OCC)C[C@H]2C(=O)NC2(CCC2)C(=O)N(C)[C@@H](C2CCCC2)C(=O)N(C)[C@H](C(=O)N2CCOCC2)CC(=O)N1C [PP0681] | 24.2 nM | B (a compound having 3 or more and less than 10 is denoted as B) | B (a compound having 3 or more and less than 10 is denoted as B) | –
CCCC[C@@H]1NC(=O)[C@H](CCc2ccc(C(F)(F)F)c(Cl)c2)NC(=O)CN(C)C(=O)[C@H](Cc2ccc(C)cc2)N(CC)C(=O)[C@@H]2CCN2C(=O)[C@H](C)N(C)C(=O)[C@H]([C@@H](C)CC)NC(=O)[C@H](CC(C)C)N(C)C(=O)C[C@@H](C(=O)N2CCCCC2)N(C)C(=O)[C@H](CC(C)C)NC(=O)C(C)(C)N(C)C1=O [PP0048] ([NMeL]I[NMeA][Aze][NEtPhe(4-Me)][Sar][hPhe(3-Cl-4-CF3)][Nle][NMeAib]L[NMeD]-Piperidide; lactam N-11) | 464 nM | – | – | HRAS /KRAS (HRAS wild-type protein; [5]): C (A compound having a KD ratio of 0.1 or more and less than 3 is denoted as C); NRAS /KRAS [1, 6]: C (A compound having a KD ratio of 0.1 or more and less than 3 is denoted as C)
CC[C@H](C)[C@@H]1NC(=O)[C@H](CC2CC2)N(C)C(=O)C[C@@H](C(=O)N(C)C)N(C)C(=O)[C@H](C2CCCC2)N(C)C(=O)C2(CC(C)(C)C2)NC(=O)[C@@H]2C[C@@H](F)CN2C(=O)[C@H](CCc2cc(F)c(C(F)(F)F)c(F)c2)NC(=O)CN(C)C(=O)[C@H](Cc2ccc(C(F)(F)F)cc2)N2CC/C=C\C[C@@H](C2=O)N(C)C(=O)CN(C)C1=O [PP1501] | 1.5 nM | – | – | HRAS /KRAS (HRAS wild-type protein; ratio of KD value for HRAS wild-type protein to KD value for KRAS (SPR)): A (a compound having 10 or more and less than 20 is denoted as A); NRAS /KRAS ([1]; ratio of KD value for GDP-bound NRAS wild-type protein to KD value for KRAS (SPR)): A (a compound having 10 or more and less than 20 is denoted as A)
CC[C@H](C)[C@@H]1NC(=O)[C@H](CC(C)C)N(C)C(=O)C[C@@H](C(=O)N2CCOCC2)N(C)C(=O)[C@H](C2CCCC2)N(C)C(=O)C2(CCCC2)NC(=O)[C@@H]2C[C@H](OC)CN2C(=O)[C@H](CCc2cc(F)c(C(F)(F)F)c(F)c2)NC(=O)CN(C)C(=O)[C@H](Cc2ccc(C(F)(F)F)cc2)N2CCCCC[C@@H](C2=O)N(C)C(=O)CN(C)C1=O [PP0495] | 837 nM | B (a compound having 3 or more and less than 10 is denoted as B) | A (a compound having 10 or more and less than 20 is denoted as A) | –
CC[C@H](C)[C@@H]1NC(=O)[C@H](CC(C)C)N(C)C(=O)C[C@@H](C(=O)N2CCOCC2)N(C)C(=O)[C@H](C2CCCC2)N(C)C(=O)C2(CCCC2)NC(=O)[C@@H]2CC(F)(F)CN2C(=O)[C@H](CCc2cc(F)c(C(F)(F)F)c(F)c2)NC(=O)CN(C)C(=O)[C@H](Cc2ccc(C(F)(F)F)cc2)N2CCCCC[C@@H](C2=O)N(C)C(=O)CN(C)C1=O [PP0491] | 33.1 nM | B (a compound having 3 or more and less than 10 is denoted as B) | B (a compound having 3 or more and less than 10 is denoted as B) | –
CCC[C@H]1C(=O)N[C@@H]([C@@H](C)CC)C(=O)N(C)CC(=O)N(C)[C@H]2C/C=C\CCN(C2=O)[C@@H](Cc2ccc(C(F)(F)F)cc2)C(=O)N(C)CC(=O)N[C@@H](CCc2cc(F)c(C(F)(F)F)c(F)c2)C(=O)N2C[C@H](OCC)C[C@H]2C(=O)NC2(CCC2)C(=O)N(C)[C@@H](C2CCCC2)C(=O)N(C)[C@H](C(=O)N(C)CCOC)CC(=O)N1C [PP1331] | 13.9 nM | – | – | HRAS /KRAS (HRAS wild-type protein; ratio of KD with respect to HRAS wild-type protein to KD with respect to KRAS): A (a compound having 10 or more and less than 20 is denoted as A); NRAS /KRAS ([1]; ratio of KD with respect to GDP-bound NRAS wild-type protein to KD with respect to KRAS): A (a compound having 10 or more and less than 20 is denoted as A)
CCO[C@@H]1C[C@H]2C(=O)NC3(CCC3)C(=O)N(C)[C@@H](C3CCCC3)C(=O)N(CC)[C@H](C(=O)N(C)C)CC(=O)N(C)[C@@H](CC)C(=O)N[C@@H]([C@@H](C)CC)C(=O)N(C)CC(=O)N(C)[C@H]3CCCCN(C3=O)[C@@H](Cc3ccc(C(F)(F)F)cc3)C(=O)N(C)CC(=O)N[C@@H](CCc3cc(F)c(C(F)(F)F)c(F)c3)C(=O)N2C1 [PP0643] | 6.5 nM | B (a compound having 3 or more and less than 10 is denoted as B) | C (A compound having a KD ratio of 0.1 or more and less than 3 is denoted as C) | –
CCO[C@@H]1C[C@H]2C(=O)NC3(CC(C)(C)C3)C(=O)N(C)[C@@H](C3CCCC3)C(=O)N(C)[C@H](C(=O)N(C)C)CC(=O)N(C)[C@@H](CC(C)C)C(=O)N[C@@H]([C@@H](C)CC)C(=O)N(C)CC(=O)N(C)[C@H]3C/C=C\CCN(C3=O)[C@@H](Cc3ccc(OC)cc3)C(=O)N(C)CC(=O)N[C@@H](CCc3ccc(C(F)(F)F)c(OC)c3)C(=O)N2C1 [PP2693] | – | – | – | HRAS /KRAS (HRAS wild-type protein; [5]): B (a compound having 3 or more and less than 10 is denoted as B); NRAS /KRAS [1, 6]: A (a compound having 10 or more and less than 20 is denoted as A); IC50 ([2]; NCI-H441 cells, 4 days, CellTiter-Glo, read-out: NCl-H441 IC50): 10.4 nM
CC[C@H](C)[C@@H]1NC(=O)[C@H](CC(C)C)N(C)C(=O)C[C@@H](C(=O)N2CCOCC2)N(C)C(=O)[C@H](C2CCCC2)N(C)C(=O)C2(CCC2)NC(=O)[C@@H]2[C@H](OC)CCN2C(=O)[C@H](CCc2cc(F)c(C(F)(F)F)c(F)c2)NC(=O)CN(C)C(=O)[C@H](Cc2ccc(C(F)(F)F)cc2)N2CCCC[C@@H](C2=O)N(C)C(=O)CN(C)C1=O [PP1084] | 83.9 nM | – | – | HRAS /KRAS (HRAS wild-type protein; [5]): B (a compound having 3 or more and less than 10 is denoted as B); NRAS /KRAS [1, 6]: C (A compound having a KD ratio of 0.1 or more and less than 3 is denoted as C)
CCO[C@@H]1C[C@H]2C(=O)NC3(CC(C)(C)C3)C(=O)N(C)[C@@H](C(CC)CC)C(=O)N(C)[C@H](C(=O)N3CCCC3)CC(=O)N(C)[C@@H](COC)C(=O)N[C@@H]([C@@H](C)CC)C(=O)N(C)CC(=O)N(C)[C@H]3C/C=C\CCN(C3=O)[C@@H](Cc3ccc(C(F)(F)F)cc3)C(=O)N(C)CC(=O)N[C@@H](CCc3ccc(Cl)c(Cl)c3)C(=O)N2C1 [PP2174] | 24 nM | A (a compound having 10 or more and less than 20 is denoted as A) | AA (a compound having 20 or more is denoted as AA) | –

Second part, led by results:

IC50 [2] | Structure (SMILES) | HRAS /KRAS (HRAS wild-type protein; [3]) | NRAS /KRAS [1, 4] | also measured
2.6 nM | CCCN1C(=O)CN(C)C(=O)CNC(=O)[C@H]([C@@H](C)CC)NC(=O)[C@H](CC(C)C)N(C)C(=O)C[C@@H](C(=O)N2CCOCC2)N(C)C(=O)[C@H](C2CCCC2)N(C)C(=O)C2(CCCC2)NC(=O)[C@@H]2CC(F)(F)CN2C(=O)[C@H](CCc2ccc(C(F)(F)F)c(Cl)c2)NC(=O)CN(C)C(=O)[C@@H]1Cc1ccc(C(F)(F)F)cc1 [PP0394] ([NMeL]IG[Sar][NPrPhe(4-CF3)][Sar][hPhe(3-Cl-4-CF3)][Pro(4,4-F2)][Ac5c][NMeGly(cPent)][NMeD]-Morpholide; lactam N-11) | C (A compound having a KD ratio of 0.1 or more and less than 3 is denoted as C) | C (A compound having a KD ratio of 0.1 or more and less than 3 is denoted as C) | –
8.8 nM | C#CCN1C(=O)CN(C)C(=O)CN(C)C(=O)[C@H]([C@@H](C)CC)NC(=O)[C@H](CC(C)C)N(C)C(=O)C[C@@H](C(=O)N2CCOCC2)N(C)C(=O)[C@H](C2CCCC2)N(C)C(=O)C2(CCCC2)NC(=O)[C@@H]2CCCN2C(=O)[C@H](CCc2ccc(C(F)(F)F)c(Cl)c2)NC(=O)CN(C)C(=O)[C@@H]1Cc1ccc(C(F)(F)F)cc1 [PP0130] ([NMeL]I[Sar][Sar][X29][Sar][hPhe(3-Cl-4-CF3)]P[Ac5c][NMeGly(cPent)][NMeD]-Morpholide; lactam N-11) | – | – | HRAS /KRAS (HRAS wild-type protein; [5]): C (A compound having a KD ratio of 0.1 or more and less than 3 is denoted as C); NRAS /KRAS [1, 6]: C (A compound having a KD ratio of 0.1 or more and less than 3 is denoted as C)
3.8 nM | CCO[C@@H]1C[C@H]2C(=O)NC3(CCC3)C(=O)N(C)[C@@H](C3CCCC3)C(=O)N(C)[C@H](C(=O)N(C)C)CC(=O)N(C)[C@H]3CCCCCc4ccc(cc4)C[C@@H](C(=O)N(C)CC(=O)N[C@@H](CCc4ccc(C(F)(F)F)c(OC)c4)C(=O)N2C1)N1CC/C=C\C[C@@H](C1=O)N(C)C(=O)CN(C)C(=O)[C@H]([C@@H](C)CC)NC3=O [PP2262] | B (a compound having 3 or more and less than 10 is denoted as B) | A (a compound having 10 or more and less than 20 is denoted as A) | –
98.3 nM | CC[C@H](C)[C@@H]1NC(=O)[C@H](CC(C)C)N(C)C(=O)C[C@@H](C(=O)N(C)C)N(C)C(=O)[C@H](C2CCCC2)N(C)C(=O)C2(CCCC2)NC(=O)[C@@H]2CCCN2C(=O)[C@H](CCc2ccc(C(F)(F)F)c(Cl)c2)NC(=O)CN(C)C(=O)[C@H](Cc2ccc(C)cc2)N2CC=CCOC[C@@H](C2=O)N(C)C(=O)CN(C)C1=O [PP0627] | C (A compound having a KD ratio of 0.1 or more and less than 3 is denoted as C) | C (A compound having a KD ratio of 0.1 or more and less than 3 is denoted as C) | –
